Reference: patent US7560591B2, “Benzamidine derivatives having anti-inflammatory and immunosuppressive activity” (Rotta Research Laboratorium S.p.A., priority 2001, dated 2009)
Like-named read-outs stand apart in the source and are kept apart here.

Tests used:
[1] = test system: colitis induced by TNBS in rats; assay: Colitis induced by TNBS in rats; type: in vivo, rat; conditions: for Weight of the colon: 48 hours after TNBS; for Weight of the colon / Myeloperoxidase activity / iNOS activity / Macroscopic damage (MDS): mean ± SD; for Myeloperoxidase activity / iNOS activity: colon tissue; for Macroscopic damage (MDS): score 0-10
Description: The combined capability of some of the compounds of the invention to inhibit both iNOS and the synthesis of TNFα has led to their activity being checked in an experimental model of colitis caused by a chemical hapten, trinitrobenzene-sulphonic acid (TNBS), which can bind to the tissue proteins and stimulate cell-mediated immunity. The intrarectal administration of TNBS in association with ethanol causes acute inflammation characterised by extensive ulceration and necrosis.
A distal colitis was therefore induced in the rat by intrarectal instillation of TNBS (40 mg/kg) dissolved in 50% ethanol (0.5 ml/rat). The drugs were administered orally twice a day on days −2; −1; 0; +1 and the animals were killed 48 hours after the administration of TNBS.
The parameters examined were: total weight of the colon (g), macroscopic tissue damage “score”, measurement of the tissue myeloperoxidase (MPO) activity, which is a marker of the infiltration of the neutrophiles, and measurement of the iNOS activity (pmoles/g tissue/min.).
The macroscopic score (MDS) was taken on about 10 cm of colon in accordance with the following arbitrary scale:
The tissue MPO measurement was performed according to Velgara et al., JPET 1994. The measurement of the tissue nitrites was performed by applying the method described above for the chondrocytes to the supernatant fluid of the tissue homogenate.
Compound I-4, administered in doses of 5, 10 and 20 mg/kg, and compound I-11 were examined, by administering them orally, in comparison with sulphasalazine (250 mg/kg) and 5-aminosalicylic acid (5-ASA) (100 mg/kg), 2 drugs which are widely used in the treatment of ulcerative colitis.

[2] = test system: neutral proteases (metalloproteases); assay: Inhibition of neutral proteases (metalloproteases) in supernatant of IL-1β-stimulated rabbit joint chondrocytes, azocoll substrate; type: biochemical; conditions: IL-1β 1 ng/ml, 48 hours, APMA-activated supernatant, read-out: MP (metalloproteases) IC50
Procedure: (§1) a) The activity in inhibiting the formation of NO, measured as NO2^− (nitrites), PGE2, and neutral protease, was investigated in vitro on culture broths of rabbit joint chondrocytes stimulated by cytokine IL-1β (1 ng/ml) for 48 hours. For the preparation of the chondrocytes, the method described by Berenbaum et al [FEBS Letters 340, 51-55 (1994)] was followed. Briefly, fragments of cartilage removed under sterile conditions from the heads of rabbit shoulder, hip and knee joints were chopped finely and digested at 37° C. by hyaluronidase, trypsin and collagenase solutions, giving rise, after filtration on sterile gauze and centrifuging at 600×g and suitable dilution with 10% DMEM-FCS, to a concentration of approximately 1×10^5 cells per well. The cells were kept in these conditions until confluence (about 15 days), the broth being changed every 3 days. At this point, the products under test, dissolved in the medium, were added to each test sample and, after 20 minutes, 350 μl IL-1β was added in order to have a final concentration of 1 ng/ml. The duration of the stimulation was 48 hours at 37° C. (incubation air-CO2 7%). Measurement of the nitrites, as described by Green et al. [Anal. Biochem. 126, 131-138 (1982)], and of the PGE2s by RIA measurement, was then performed on the cell supernatant fluid. The measurement of the neutral proteases was performed in the cell supernatant fluid containing the p-aminophenyl mercury acetate (APMA) activator with the use of azocoll as the substrate and with incubation at 37° C. for 17 h as described by Chavira et al. [Anal. Biochem. 136, 446-450 (1984)]. In order to evaluate the direct inhibitory effect of the compounds under test on the hydrolytic activity of the cell supernatant fluid, they were added to the supernatant fluid containing the proteases induced by IL-1β and already activated by AMPA.
(§2) The results obtained are shown in Table 3, in which the IC50, that is, the concentration (micromolar) of antagonist which can inhibit the formation of nitrites, PGE2s, and neutral proteases, respectively, by 50% relative to the control group, that is, to the cells stimulated with IL-1β but without the addition of antagonists, is given for some of the compounds of the invention already given by way of example in Table 2.

formation of PGE2 = assay: Inhibition of PGE2 formation in rabbit joint chondrocytes stimulated by IL-1β (RIA); type: cell-based; conditions: IL-1β 1 ng/ml, 48 hours
Procedure: as §1, §2

[3] = test system: formation of NO, measured as NO2− (nitrites); assay: Inhibition of NO (nitrite) formation in rabbit joint chondrocytes stimulated by IL-1β; type: cell-based; conditions: IL-1β 1 ng/ml, 48 hours, NO determined as nitrites
Procedure: as §1, §2

[4] = test system: extravasation in the ears of mice; assay: Extravasation (Evans Blu) induced by phlogogenic agents in the ears of mice; type: in vivo
Procedure: b) Some of the compounds of the invention, such as compounds I-4, I-11 and I-31, were evaluated in vivo in a series of experimental extravasation models in which 5 μl of the preselected phlogogenic agent dissolved in physiological solution was injected intradermally into the ears of mice as described by Erdo et al., with slight modifications [Agents and Actions 39, 137-142 (1993)].
The products under test were administered orally 1 hour before the challenge and, 30 minutes before the challenge, the dye Evans Blu was injected intravenously in a dose of 100 mg/kg. The animals were killed at a time predetermined according to the test, 30 min.—2 hours after the challenge. The extravasation was evaluated by determining the quantity of dye present in the ear, extracted after homogenisation of the tissue in 2 ml of formamide and incubation at 50° C. for 2 hours. After centrifuging, the amount of dye was determined by measuring the absorption at 620 nm. The maximum % effect (% MPE) was calculated by the following formula:
[formula] in which EV is the mean absorption observed in the group of animals treated solely with the phlogogenic agent, ED is the group treated with the phlogogenic agent and the drug, and EB is the base value, that is, the value for the animals injected with physiological solution alone.
The phlogogenic agents used were:
Arachidonic acid (dissolved in EtOH); (1 mg/mouse; killed+30 min); histamine (3 nmoli/mouse; killed+30 min); PAF (30 pmoli/mouse; killed+60 min); Zymosan (10 μg/mouse; killed+120 min); bradykinin (0.6 nmoli/mouse; killed+30 min).

[5] = 250 mg/kg, non-statistically significant
[6] = Oryctolagus cuniculus, Chondrocyte
[7] = OS, mouse ear, PAF, read-out: ED50, extravasation induced by PAF

| SMILES | IC50 [2] [µM] | IC50 (formation of PGE2) [µM] | IC50 [3] [µM] | also measured |
| --- | --- | --- | --- | --- |
| O=C(O)c1cc(/N=N/c2ccc(S(=O)(=O)Nc3ccccn3)cc2)ccc1O [Sulphasalazine, sulphasalazine, reference compound] | – | – | – | Weight of the colon ([1]; 250 mg/kg orally twice a day): 2.5 ± 0.3 g; Myeloperoxidase activity ([1]; 250 mg/kg orally twice a day): 7.5 ± 5.5 UMPO/g/min; iNOS activity ([1]; 250 mg/kg orally twice a day): 100.8 ± 86.8 pmol/g/min; Macroscopic damage (MDS) ([1]; 250 mg/kg orally twice a day): 6.0 ± 2.9; effect on iNOS activity [1, 5]: about 50%; effect on macroscopic damage [1, 5]: about 20% |
| CC(=N)Nc1ccc(NC(=O)Cc2c[nH]c3ccccc23)cc1 [Compound I-27] | – | – | 10 | – |
| CC(=N)Nc1ccc(NC(=S)Nc2ncc(C)s2)cc1 [Compound I-21] | – | – | 66.6 | – |
| Nc1ccc(O)c(C(=O)O)c1 [Compound 5-ASA, 5-aminosalicylic acid, reference compound] | – | – | – | activity on all of the parameters (in words) ([1]; 100 mg/kg): inactive; Weight of the colon ([1]; 100 mg/kg orally twice a day): 2.4 ± 0.4 g; Myeloperoxidase activity ([1]; 100 mg/kg orally twice a day): 7.9 ± 2.3 UMPO/g/min; iNOS activity ([1]; 100 mg/kg orally twice a day): 167.3 ± 106.5 pmol/g/min; Macroscopic damage (MDS) ([1]; 100 mg/kg orally twice a day): 6.9 ± 1.1 |
| CCC(=N)Nc1ccc(NC(=S)NC2CCCCC2)cc1 [Compound I-12] | 100 | 13.3 | – | – |
| CCCCNC(=S)Nc1ccc(NC(C)=N)cc1 [Compound I-3] | 13.3 | 250 | 190 | – |
| CC(=N)Nc1ccc(NC(=S)NCCc2ccc(F)cc2)cc1 [Compound I-16] | 6.6 | 26.6 | 13.3 | – |
| CC(=N)Nc1ccc(NC(=S)NCCc2ccccn2)cc1 [Compound I-20] | 6.6 | 16.6 | 16.6 | – |
| CS(=O)(=O)Nc1ccc([N+](=O)[O-])cc1Oc1ccccc1 [Nimesulide, reference compound] | – | – | – | ED50 [4, 7]: > 40 mg/kg; ED50 ([4]; OS, mouse ear, arachidonic acid, read-out: ED50, extravasation induced by AA (arachidonic acid)): 41 mg/kg; times less active than Compound I-4 ([4]; antagonising AA): 2 times |
| N=C(Nc1ccc(NC(=S)NC2CCCCC2)cc1)N[N+](=O)[O-] [Compound I-31] | 6.6 | 30 | 46.6 | ED50, extravasation induced by PAF ([4]; OS, mouse ear, PAF): 10.8 mg/kg; ED50, extravasation induced by Zymosan ([4]; OS, mouse ear, Zymosan): 10.5 mg/kg; ED50, extravasation induced by AA (arachidonic acid) ([4]; OS, mouse ear, arachidonic acid): 30.5 mg/kg |
| CC(=N)Nc1ccc(NC(=O)C2CCCCC2)cc1 [Compound I-24] | – | 33.3 | 33.3 | – |
| N=C(N)Nc1ccc(NC(=S)NC2CCCCC2)cc1 [Compound I-30, 1-guanidinophenyl-4-cyclohexyl Thiourea] | 13.3 | 10 | 6.6 | – |
| CC(=N)Nc1ccc(NC(=S)NCc2ccccn2)cc1 [Compound I-19] | 13.3 | – | – | – |
| CN1C(C(=O)Nc2ccccn2)=C(O)c2ccccc2S1(=O)=O [Piroxicam, reference compound] | – | – | – | ED50 [4, 7]: 21.2 mg/kg; ED50 ([4]; OS, mouse ear, Zymosan, read-out: ED50, extravasation induced by Zymosan): 6.1 mg/kg |

Continued, in another order:

| IC50 [2] [µM] | IC50 (formation of PGE2) [µM] | IC50 [3] [µM] | SMILES | also measured |
| --- | --- | --- | --- | --- |
| 30 | – | – | CNC(=S)Nc1ccc(NC(C)=N)cc1 [Compound I-1] | – |
| 25 | 6.6 | 25 | CC(=N)Nc1ccc(NC(=O)NC2CCCCC2)cc1 [Compound I-29] | – |
| 30 | – | – | CCCNC(=S)Nc1ccc(NC(C)=N)cc1 [Compound I-2] | IC50 (formation of PGE2; [6]): > 300 µM; IC50 [3, 6]: > 300 µM; melting point: 188.1 to 189.1 °C |
| 6.6 | 33 | 100 | CC(=N)Nc1ccc(NC(=S)NCCc2ccccc2)cc1 [Compound I-14] | – |
| 13.3 | 6.6 | 3.3 | CC(=N)Nc1ccc(NC(=S)NCCC(C)C)cc1 [Compound I-7] | – |
| 10 | 10 | 10 | CC(=N)Nc1ccc(NC(=S)NCCc2ccc(Cl)cc2)cc1 [Compound I-17] | – |
| – | 16.6 | – | CC(=N)Nc1ccc(NC(=O)C23CC4CC(CC(C4)C2)C3)cc1 [Compound I-25] | – |
| 6.6 | 16.6 | 33 | CC(=N)Nc1ccc(NC(=S)NCCCc2ccccc2)cc1 [Compound I-15] | – |
| 3.3 | 10 | 10 | CCCCCCNC(=S)Nc1ccc(NC(C)=N)cc1 [Compound I-5] | – |
| 6.6 | 6.6 | – | CC(=N)Nc1ccc(NC(=S)NCCc2c(F)cccc2F)cc1 [Compound I-18] | – |
| – | 100 | – | CC(=N)Nc1ccc(NC(=O)c2cc3ccccc3n2C)cc1 [Compound I-28] | – |
| 20 | – | – | CCCCCCCNC(=S)Nc1ccc(NC(C)=N)cc1 [Compound I-6] | IC50 (formation of PGE2; [6]): 20 µM; IC50 [3, 6]: 30 µM; melting point: 177.8 to 178.4 °C |
| 6.6 | 10 | 100 | CC(=N)Nc1ccc(NC(=S)Nc2ccccc2)cc1 [Compound I-13] | – |
| 30 | 16.6 | 110 | CC(=N)Nc1ccc(NC(=S)NC2CCCCC2)cc1 [Compound I-11] | activity in TNBS colitis (in words) ([1]; 20 mg/kg): active; Weight of the colon ([1]; 20 mg/kg orally twice a day): 2.2 ± 0.3 g; Myeloperoxidase activity ([1]; 20 mg/kg orally twice a day): 6.5 ± 1.8 UMPO/g/min; iNOS activity ([1]; 20 mg/kg orally twice a day): 90.6 ± 45.6 pmol/g/min; Macroscopic damage (MDS) ([1]; 20 mg/kg orally twice a day): 4.3 ± 0.9(*) |
| – | – | 100 | CCCCCC(=O)Nc1ccc(NC(C)=N)cc1 [Compound I-23] | – |
| – | 300 | – | CC(=N)Nc1cccc(NC(=S)NC2CCCCC2)c1 [Compound I-32] | – |
